Test results taken from ChEMBL document CHEMBL3860102, “Structure-Cytotoxicity Relationships of Analogues of N14-Desacetoxytubulysin H” (J Med Chem, 2016).

Columns and labels:
[1] = Cytotoxicity against human DU145 cells incubated for 72 hrs by alamar blue abased assay; format: functional; settings: DU-145, 72 h
[2] = Cytotoxicity against human HCT116 cells incubated for 72 hrs by alamar blue abased assay; format: functional; settings: HCT-116, 72 h
[3] = Cytotoxicity against human MDA-MB-231 cells incubated for 72 hrs by alamar blue abased assay; format: functional; settings: MDA-MB-231, 72 h
[4] = Cytotoxicity against mouse L929 cells; format: functional, cell-based
[5] = Cytotoxicity against human SW480 cells; format: functional, cell-based
[6] = Cytotoxicity against human KB-3-1 cells; format: functional, cell-based
[7] = Cytotoxicity against human T98 cells; format: functional, cell-based

CC[C@H](C)[C@H](NC(=O)[C@H]1C[C@@H](C)CN1C)C(=O)N(C)[C@H](C[C@@H](OC(C)=O)c1nc(C(=O)N[C@@H](Cc2ccccc2)C[C@H](C)C(=O)O)cs1)C(C)C
GI50 [1]: 1.7 nM | GI50 [2]: 0.8 nM | GI50 [3]: 4.2 nM

CC[C@H](C)[C@H](NC(=O)[C@H]1CCc2ccccc2N1C)C(=O)N(C)[C@H](C[C@@H](OC(C)=O)c1nc(C(=O)N[C@@H](Cc2ccccc2)C[C@H](C)C(=O)O)cs1)C(C)C
GI50 [1]: > 3330 nM | GI50 [2]: > 3330 nM | GI50 [3]: > 3330 nM

CC[C@H](C)[C@H](NC(=O)[C@H]1CSCN1C)C(=O)N(C)[C@H](C[C@@H](OC(C)=O)c1nc(C(=O)N[C@@H](Cc2ccccc2)C[C@H](C)C(=O)O)cs1)C(C)C
GI50 [1]: 1120 nM | GI50 [2]: 352 nM | GI50 [3]: 816 nM

CC[C@H](C)[C@H](NC(=O)[C@H]1CCCCN1C)C(=O)N(C)[C@H](C[C@@H](OC(C)=O)c1nc(C(=O)N[C@@H](Cc2ccccc2)C[C@H](C)C(=O)NN)cs1)C(C)C
GI50 [1]: 6.63 nM | GI50 [2]: 6.09 nM | GI50 [3]: 5.24 nM

CC[C@H](C)[C@H](NC(=O)[C@H]1CCCCN1CCN)C(=O)N(C)[C@H](C[C@@H](OC(C)=O)c1nc(C(=O)N[C@@H](Cc2ccccc2)C[C@H](C)C(=O)O)cs1)C(C)C
GI50 [1]: 176 nM | GI50 [2]: 174 nM | GI50 [3]: 243 nM

CC[C@H](C)[C@H](NC(=O)[C@H]1CC2CCN1CC2)C(=O)N(C)[C@H](C[C@@H](OC(C)=O)c1nc(C(=O)N[C@@H](Cc2ccccc2)C[C@H](C)C(=O)O)cs1)C(C)C
GI50 [1]: 428 nM | GI50 [2]: 214 nM | GI50 [3]: 196 nM

CC[C@H](C)[C@H](NC(=O)[C@H]1CCCCN1C)C(=O)N(C)[C@H](C[C@@H](OC(C)=O)c1nc(C(=O)N[C@@H](Cc2ccccc2)C[C@H](C)C(N)=O)cs1)C(C)C
GI50 [1]: 0.948 nM | GI50 [2]: 0.737 nM | GI50 [3]: 1.06 nM

CC[C@H](C)[C@H](NC(=O)[C@H]1CCCCN1C(C)=O)C(=O)N(C)[C@H](C[C@@H](OC(C)=O)c1nc(C(=O)N[C@@H](Cc2ccccc2)C[C@H](C)C(=O)O)cs1)C(C)C
GI50 [1]: > 3330 nM | GI50 [2]: 798 nM | GI50 [3]: > 3330 nM

CC[C@H](C)[C@H](NC(=O)[C@H]1CCCN1C)C(=O)N(C)[C@H](C[C@@H](OC(C)=O)c1nc(C(=O)N[C@@H](Cc2ccccc2)C[C@H](C)C(=O)O)cs1)C(C)C
GI50 [1]: 1 nM | GI50 [2]: 0.6 nM | GI50 [3]: 3.3 nM

CC[C@H](C)[C@H](NC(=O)C1(C)CCCCN1C)C(=O)N(C)[C@H](C[C@@H](OC(C)=O)c1nc(C(=O)N[C@@H](Cc2ccccc2)C[C@H](C)C(=O)O)cs1)C(C)C (some centres undefined)
GI50 [1]: 1.2 nM

CC[C@H](C)[C@H](NC(=O)[C@H]1CC(C)(C)CCN1C)C(=O)N(C)[C@H](C[C@@H](OC(C)=O)c1nc(C(=O)N[C@@H](Cc2ccccc2)C[C@H](C)C(=O)O)cs1)C(C)C
GI50 [1]: 1.3 nM | GI50 [2]: 1.8 nM | GI50 [3]: 3.9 nM

CC[C@H](C)[C@H](NC(=O)[C@@H](c1ccccc1)N(C)C)C(=O)N(C)[C@H](C[C@@H](OC(C)=O)c1nc(C(=O)N[C@@H](Cc2ccccc2)C[C@H](C)C(=O)O)cs1)C(C)C
GI50 [1]: 82.3 nM | GI50 [2]: 52.5 nM | GI50 [3]: 111 nM

CC[C@H](C)[C@H](NC(=O)[C@@H](C(C)C)N(C)C)C(=O)N(C)[C@H](C[C@@H](OC(C)=O)c1nc(C(=O)N[C@@H](Cc2ccccc2)C[C@H](C)C(=O)O)cs1)C(C)C
GI50 [1]: 9.6 nM | GI50 [2]: 4.4 nM | GI50 [3]: 10.7 nM

CC[C@H](C)[C@H](NC(=O)[C@H]1CCCCN1C)C(=O)N(C)[C@H](C[C@@H](OC(C)=O)c1nc(C(=O)N[C@@H](Cc2ccccc2)C[C@H](C)C(=O)O)cs1)C(C)C
GI50 [1]: 0.71 nM | GI50 [2]: 0.62 nM | GI50 [3]: 1.14 nM | IC50 [4]: 0.34 nM | IC50 [5]: 0.02 nM | IC50 [6]: 0.19 nM | IC50 [7]: 1.6 nM

CC[C@H](C)[C@H](NC(=O)[C@H]1COCCN1)C(=O)N(C)[C@H](C[C@@H](OC(C)=O)c1nc(C(=O)N[C@@H](Cc2ccccc2)C[C@H](C)C(=O)O)cs1)C(C)C
GI50 [1]: 2280 nM | GI50 [2]: 1380 nM | GI50 [3]: > 3330 nM

CC[C@H](C)[C@H](NC(=O)[C@H]1C[C@H](C)CCN1C)C(=O)N(C)[C@H](C[C@@H](OC(C)=O)c1nc(C(=O)N[C@@H](Cc2ccccc2)C[C@H](C)C(=O)O)cs1)C(C)C
GI50 [1]: 0.9 nM | GI50 [2]: 0.5 nM | GI50 [3]: 3.4 nM

CC[C@H](C)[C@H](NC(=O)[C@H]1CCCCN1C)C(=O)N(C)[C@H](C[C@@H](OC(C)=O)c1nc(C(=O)N[C@H](CN)Cc2ccccc2)cs1)C(C)C
GI50 [1]: 2.7 nM | GI50 [2]: 5.9 nM | GI50 [3]: 9 nM

CC[C@H](C)[C@H](NC(=O)[C@@H](C)N(C)C)C(=O)N(C)[C@H](C[C@@H](OC(C)=O)c1nc(C(=O)N[C@@H](Cc2ccccc2)C[C@H](C)C(=O)O)cs1)C(C)C
GI50 [1]: 4.5 nM | GI50 [2]: 2.5 nM | GI50 [3]: 3.9 nM

CC[C@H](C)[C@H](NC(=O)[C@H]1CCCCN1C)C(=O)N(C)[C@H](C[C@@H](O)c1nc(C(=O)N[C@@H](Cc2ccccc2)C[C@H](C)C(=O)O)cs1)C(C)C
GI50 [1]: 363 nM | GI50 [2]: 110 nM | GI50 [3]: 169 nM

CC[C@H](C)[C@H](NC(=O)[C@H]1CCSCN1C)C(=O)N(C)[C@H](C[C@@H](OC(C)=O)c1nc(C(=O)N[C@@H](Cc2ccccc2)C[C@H](C)C(=O)O)cs1)C(C)C
GI50 [1]: 136 nM | GI50 [2]: 64.2 nM | GI50 [3]: 125 nM

CC[C@H](C)[C@H](NC(=O)[C@H]1COCCN1C)C(=O)N(C)[C@H](C[C@@H](OC(C)=O)c1nc(C(=O)N[C@@H](Cc2ccccc2)C[C@H](C)C(=O)O)cs1)C(C)C
GI50 [1]: 808 nM | GI50 [2]: 408 nM | GI50 [3]: 998 nM

CCCN(C)[C@@H](C(=O)N[C@H](C(=O)N(C)[C@H](C[C@@H](OC(C)=O)c1nc(C(=O)N[C@@H](Cc2ccccc2)C[C@H](C)C(=O)O)cs1)C(C)C)[C@@H](C)CC)C(C)C
GI50 [1]: > 3330 nM | GI50 [2]: > 3330 nM | GI50 [3]: > 3330 nM

CC[C@H](C)[C@H](NC(=O)[C@@H]1CC(C)(C)CCN1C)C(=O)N(C)[C@H](C[C@@H](OC(C)=O)c1nc(C(=O)N[C@@H](Cc2ccccc2)C[C@H](C)C(=O)O)cs1)C(C)C
GI50 [1]: 50.6 nM | GI50 [2]: 88 nM | GI50 [3]: 118 nM

CC[C@H](C)[C@H](NC(=O)[C@H]1CCCCN1)C(=O)N(C)[C@H](C[C@@H](OC(C)=O)c1nc(C(=O)N[C@@H](Cc2ccccc2)C[C@H](C)C(=O)O)cs1)C(C)C
GI50 [1]: 46.2 nM | GI50 [2]: 21.3 nM | GI50 [3]: 19.6 nM

CC[C@H](C)[C@H](NC(=O)[C@H]1CCCCN1)C(=O)N(C)[C@H](C[C@@H](OC(C)=O)c1nc(C(=O)N[C@@H](Cc2ccccc2)C[C@H](C)C(=O)OC)cs1)C(C)C
GI50 [1]: 11.5 nM | GI50 [2]: 3.68 nM | GI50 [3]: 9.39 nM

CC[C@H](C)[C@H](NC(=O)[C@@H](C(C)C)N(C)CC)C(=O)N(C)[C@H](C[C@@H](OC(C)=O)c1nc(C(=O)N[C@@H](Cc2ccccc2)C[C@H](C)C(=O)O)cs1)C(C)C
GI50 [1]: 2940 nM | GI50 [2]: 1640 nM | GI50 [3]: 3020 nM

CC[C@H](C)[C@H](NC(=O)[C@@H](CC(C)C)N(C)C)C(=O)N(C)[C@H](C[C@@H](OC(C)=O)c1nc(C(=O)N[C@@H](Cc2ccccc2)C[C@H](C)C(=O)O)cs1)C(C)C
GI50 [1]: 17 nM | GI50 [2]: 8.2 nM | GI50 [3]: 19.1 nM

CC[C@H](C)[C@H](NC(=O)[C@H]1CSCCN1C)C(=O)N(C)[C@H](C[C@@H](OC(C)=O)c1nc(C(=O)N[C@@H](Cc2ccccc2)C[C@H](C)C(=O)O)cs1)C(C)C
GI50 [1]: 166 nM | GI50 [2]: 69.3 nM | GI50 [3]: 226 nM

CC[C@H](C)[C@H](NC(=O)[C@@H](Cc1ccccc1)N(C)C)C(=O)N(C)[C@H](C[C@@H](OC(C)=O)c1nc(C(=O)N[C@@H](Cc2ccccc2)C[C@H](C)C(=O)O)cs1)C(C)C
GI50 [1]: 134 nM | GI50 [2]: 103 nM | GI50 [3]: 225 nM
